# Calls of active or inactive are those of the source. The rule behind the calls is not given here.
# Biological target: Melatonin receptor (Gallus gallus, UniProt P49288+P51050+P49285)
# Test: Binding affinity towards melatonin receptor was determined using 2-[125I]iodomelatonin as radioligand in chick brain membranes
# Assay type: cell membranes, Membrane
# Conditions: not given
row,Structure (SMILES),Ki
1,COc1ccc2c(c1)c1c(n2C)CCCC1NC(=O)C1CC1 (stereo not given),30 nM
2,CC(=O)NC1CCc2[nH]c3ccccc3c2C1 (stereo not given),5350 nM
3,CCCCC(=O)NC1CCCc2c1c1ccccc1n2C (stereo not given),> 10000 nM
4,COc1ccc2[nH]c3c(c2c1)CC(NC(=O)CBr)CC3 (stereo not given),8.3 nM
5,COc1ccc2c(c1)c(CCNC(C)=O)cn2C,254 nM
6,COc1ccc2c(c1)c1c(n2C)CCCC1NC(=O)C1CCC1 (stereo not given),271 nM
7,O=C(CBr)NC1CCc2[nH]c3ccccc3c2C1 (stereo not given),740 nM
8,COc1ccc2[nH]c3c(c2c1)CC(NC(=O)C(F)(F)F)CC3 (stereo not given),102 nM
9,CCC(Br)C(=O)NC1CCc2[nH]c3ccccc3c2C1 (stereo not given),> 10000 nM
10,Cn1c2c(c3ccccc31)C(NC(=O)C(F)(F)F)CCC2 (stereo not given),766 nM
11,CCCC(=O)NC1CCCc2c1c1ccccc1n2C (stereo not given),215 nM
12,CC(=O)NC1CCCc2c1c1ccccc1n2C (stereo not given),227 nM
13,CCCCC(=O)NC1CCCc2c1c1cc(OC)ccc1n2C (stereo not given),82 nM
14,COc1ccc2[nH]c3c(c2c1)CC(NC(C)=O)CC3 (stereo not given),219 nM
15,CCCC(=O)NC1CCc2[nH]c3ccc(OC)cc3c2C1 (stereo not given),560 nM
16,CCC(=O)NC1CCCc2c1c1ccccc1n2C (stereo not given),204 nM
17,COc1ccc2c(c1)c1c(n2C)CCCC1NC(C)=O (stereo not given),0.97 nM
18,CCC(=O)NC1CCCc2c1c1cc(OC)ccc1n2C (stereo not given),1.44 nM
19,CCCC(=O)NC1CCCc2c1c1cc(OC)ccc1n2C (stereo not given),0.378 nM
20,COc1ccc2c(c1)c1c(n2C)CCCC1NC(=O)C(F)(F)F (stereo not given),1.98 nM
21,CCC(=O)NC1CCc2[nH]c3ccccc3c2C1 (stereo not given),436 nM
22,CCC(=O)NC1CCc2[nH]c3ccc(OC)cc3c2C1 (stereo not given),41 nM
23,CCCC(=O)NC1CCc2[nH]c3ccccc3c2C1 (stereo not given),1060 nM
24,COc1ccc2[nH]c3c(c2c1)CC(NC(=O)C1CC1)CC3 (stereo not given),570 nM
25,O=C(NC1CCc2[nH]c3ccccc3c2C1)C(F)(F)F (stereo not given),4630 nM
26,Cn1c2c(c3ccccc31)C(NC(=O)C1CC1)CCC2 (stereo not given),4460 nM

# Species on record: Xenopus laevis
# Test: Agonistic activity was determined in a pigment aggregation model using cultured melanophores isolated from the neural crest of Xenopus laevis embryos.
# Assay type: functional
# Conditions: frog; filed as agonist
row,Structure (SMILES),Activity
1,COc1ccc2c(c1)c1c(n2C)CCCC1NC(=O)C1CC1 (stereo not given),Agonist
2,CCCCC(=O)NC1CCCc2c1c1ccccc1n2C (stereo not given),Agonist
3,COc1ccc2c(c1)c1c(n2C)CCCC1NC(=O)C1CCC1 (stereo not given),Agonist
4,Cn1c2c(c3ccccc31)C(NC(=O)C(F)(F)F)CCC2 (stereo not given),Agonist
5,CCCC(=O)NC1CCCc2c1c1ccccc1n2C (stereo not given),Agonist
6,CC(=O)NC1CCCc2c1c1ccccc1n2C (stereo not given),Agonist
7,CCCCC(=O)NC1CCCc2c1c1cc(OC)ccc1n2C (stereo not given),Agonist
8,COc1ccc2[nH]c3c(c2c1)CC(NC(C)=O)CC3 (stereo not given),Agonist
9,CCCC(=O)NC1CCc2[nH]c3ccc(OC)cc3c2C1 (stereo not given),Agonist
10,CCC(=O)NC1CCCc2c1c1ccccc1n2C (stereo not given),Agonist
11,COc1ccc2c(c1)c1c(n2C)CCCC1NC(C)=O (stereo not given),Agonist
12,CCC(=O)NC1CCCc2c1c1cc(OC)ccc1n2C (stereo not given),Agonist
13,CCCC(=O)NC1CCCc2c1c1cc(OC)ccc1n2C (stereo not given),Agonist
14,COc1ccc2c(c1)c1c(n2C)CCCC1NC(=O)C(F)(F)F (stereo not given),Agonist
15,COc1ccc2[nH]c3c(c2c1)CC(NC(=O)C1CC1)CC3 (stereo not given),Agonist
16,Cn1c2c(c3ccccc31)C(NC(=O)C1CC1)CCC2 (stereo not given),Agonist

# Species on record: Xenopus laevis
# Test: Agonistic activity was determined in a pigment aggregation model using cultured melanophores isolated from the neural crest of Xenopus laevis embryos; inactive
# Assay type: functional
# Conditions: frog
row,Structure (SMILES),Activity
1,CCCC(=O)NC1CCc2[nH]c3ccccc3c2C1 (stereo not given),inactive

# Species on record: Xenopus laevis
# Test: Agonistic activity was determined in a pigment aggregation model using cultured melanophores isolated from the neural crest of Xenopus laevis embryos; mixed
# Assay type: functional
# Conditions: frog; filed as partial agonist
row,Structure (SMILES),Activity
1,COc1ccc2[nH]c3c(c2c1)CC(NC(=O)CBr)CC3 (stereo not given),Partial agonist

# Species on record: Xenopus laevis
# Test: Agonistic activity was determined in a pigment aggregation model using cultured melanophores isolated from the neural crest of Xenopus laevis embryos; partial agonist
# Assay type: functional
# Conditions: frog; filed as partial agonist
row,Structure (SMILES),Activity
1,O=C(CBr)NC1CCc2[nH]c3ccccc3c2C1 (stereo not given),Partial agonist
2,CCC(=O)NC1CCc2[nH]c3ccccc3c2C1 (stereo not given),Partial agonist

# Species on record: Xenopus laevis
# Test: Agonistic activity was determined in a pigment aggregation model using cultured melanophores isolated from the neural crest of Xenopus laevis embryos
# Assay type: functional, frog
# Conditions: not given
row,Structure (SMILES),EC50
1,O=C(CBr)NC1CCc2[nH]c3ccccc3c2C1 (stereo not given),< 1000 nM
2,CCCC(=O)NC1CCc2[nH]c3ccc(OC)cc3c2C1 (stereo not given),10000 nM
3,CCCC(=O)NC1CCCc2c1c1cc(OC)ccc1n2C (stereo not given),2.5 nM
4,CCC(=O)NC1CCc2[nH]c3ccccc3c2C1 (stereo not given),> 10000 nM

# From ChEMBL document CHEMBL1127919 (Bioorg Med Chem Lett, 1994)
